“And” between values parts separate entries of the source, which are not always exact repeats. Equal entries are not always repeated.
Experiments:
[1] = test system: myoblasts derived from SMA type II patients (KM1150SMAII7PV); assay: Fusion index of immortalized myoblasts derived from SMA type II patients; format: cell-based, human; conditions: 72 h, healthy myoblasts about 68%, patient myoblasts 50%
Protocol: Fusion index of immortalized myoblasts derived from patients with SMA type II. […] Healthy (control; abbreviated as CON) and solvent-treated 25 SMA myoblasts (0.5% DMSO) were used to establish a difference in the differentiation process. Risdiplam at 1 μM was used as a positive control. Nuclei were labeled with 4′,6-diamidino-2-phenylindole (DAPI) and myoblasts were detected using an anti-Desmin antibody. Multinuclear myotubes are marked with white arrows. The fusion index of DMSO-treated healthy and SMA differentiated myoblasts, and compound-treated SMA myoblasts, was calculated. Data were collected after analysis of at least 100 cells and statistics were calculated using Student's t-test (*p<0.05, **p<0.01, ***p<0.001).
For myoblast immunostaining, 40,000 cells were seeded in a 24-well plate (previously covered with collagen) with 400 μl of KMEM medium and incubated overnight. The following day the medium was changed for the DMEM Glutamax 4.5 g (Gibco) differentiation medium supplemented with 2% horse serum (Sigma); penicillin (100 U/ml) and streptomycin (100 mg/ml) [1% P/S; Gibco], gentamicin (50 μg/ml; Sigma) and insulin (10 μg/ml; Sigma). […] The cells were incubated for 72 h with the compounds and fixed in 4% paraformaldehyde for 10 minutes. All cell cultures were incubated at 37° C. with 5% CO2.
Nuclei were stained with DAPI. […]

delta 7 SMA mice [2] = assay: NMJ innervation of quadriceps muscles in delta 7 SMA mice; format: in vivo; conditions: mean ± SEM, sham 33.75±1.31%
SMN2 Δ7 transcript = assay: qPCR quantification of SMN2 without exon 7 (Δ7) transcript in SMA fibroblasts; format: cell-based, human; parameters: key: relative expression (2^-ΔΔCt), normalized to reference gene; conditions: 48 hours, GM03813 fibroblasts, normalized to GAPDH, each of 3 samples
Protocol: (§1) Fibroblasts derived from SMA patients (GM03813; Coriell Cell Repositories) were grown at 37° C. in cell culture bottles with Dulbecco's Modified Eagle Medium (DMEM; Gibco) and […] glucose. The medium was supplemented with penicillin (100 U/ml) and streptomycin ([…]) [1% P/S; Gibco] and 10% inactivated fetal bovine serum (FBS; Gibco).
(§2) For RNA extraction 400,000 GM03813 fibroblasts were seeded in 60 mm culture dishes in 4 ml of supplemented DMEM medium. The following day the medium was changed, and the candidate compound was added at its maximum non-toxic concentration. The cells were incubated for 48 hours and then washed with 1× PBS and collected in sterile 1.5 ml tubes. The same was done for the evaluation of the effect of haloperidol on the level of SMN protein (example 2) with the difference that 1,000,000 fibroblasts were used in a 100 mm cell culture plate and that the cells were collected after […] with a RIPA protein extraction buffer supplemented with a protease inhibitor cocktail (cOmplete; Roche).
(§3) Extraction of RNA from cells was carried out with ReliaPrep™ RNA Cell Miniprep System (Promega), following the manufacturer's instructions. […] RNA concentration and salt contamination were measured with the NanoDrop spectrophotometer (ThermoFisher). The samples were stored at −80° C. […] of total RNA was retrotranscribed using SuperScript III retrotranscriptase (Invitrogen) following the manufacturer's instructions. Genomic DNA contamination was monitored in the RNA samples without the addition of retrotranscriptase.
(§4) For the quantification of the SMN2 full length (FL) and SMN2 without exon 7 (Δ7) transcripts, qPCR Probe Mix (Solis Biodyne) was used. The reaction was carried out in a multiplex manner, in which the signal from the SMN2 and GAPDH probe was read in a single reaction. 10 ng of cDNA was used as a standard and the concentration of both probes was 250 nM.
(§5) Primer sets for detection of SMN2 FL or Δ7 isoforms were used at a final concentration of 500 nM while the concentration of the primer set used for GAPDH was 150 nM. All reactions were carried out using a Step-One Real-Time PCR thermocycler (Applied Biosystems). In all cases, the experiment included 3 biological samples and three technical replicates for each sample. Expression levels were normalized to the reference gene using a 2-^ΔΔCt method. Primers were obtained from Naryshkin, N. A. et al. Science (2014) 345, 688-693.
(§6) The selected SMA fibroblast line has 3 copies of the SMN2 gene and homozygous deletion of Ex7-Ex8 in SMN1 and therefore only SMN2 gene transcripts were measured. The conditions for cell cultures and extraction protocols are described in Example 1.

SMN protein = SMN protein levels by Western blotting in fibroblasts derived from SMA type II patients; format: cell-based, human; conditions: 72 h, compared to 0.5% DMSO, single samples
Protocol: as §1, §2
Fibroblasts derived from SMA type Il patients were incubated with haloperidol at three concentrations for 72 h. 10 μg of protein extracted from cells treated with haloperidol were separated by electrophoresis with acrylamide/bis-acrylamide gels SDS-PAGE with the Mini-protean Electrophoresis System (Bio-Rad). After electrophoresis was carried out, the proteins were transferred to a nitrocellulose membrane (GE Healthcare) using a semi-dry electro-transfer system (Bio-Rad) for one hour with a constant voltage of 15 V. The membranes were incubated with a blocking solution (5% skim milk in PBST, 1× PBS, 0.1% Tween 20) for at least 1 h at room temperature. […]
Chemiluminescence was detected using SuperSignal West Pico Sensitivity Substrate (Pierce) and acquired with ImageQuant LAS 4000 (GE Healthcare). […] Statistical significance was calculated using the Student's t-test (* p<0.05, ** p<0.01, *** p<0.001).

SMA Δ7 mice = assay: Body weight and behavioral motor tests in SMA Δ7 mice; format: in vivo
Protocol: FIG. 4. Effect of Haloperidol treatment on weight and motor performances of SMN Δ7 mice. […] VHL (vehicle, 0.9% saline solution with 2% DMSO) n=8, HALO (haloperidol) n=5. Results are expressed as mean±SEM (two-way ANOVA, * p≤0.05; ** p≤0.01; *** p≤0.001; **** p≤0.0001).
(§7) The efficacy of Haloperidol was then tested (University of Turin, Boido et al.) in SMA Δ7 mice (purchased from Jackson Laboratory, Maine, USA; stock number 005025). This triple mutant mouse harbors two transgenic alleles and a single targeted mutant. The Tg(SMN2*delta7)4299Ahmb allele consists of a SMN cDNA lacking exon 7 whereas the Tg(SMN2)89Ahmb allele consists of the entire human SMN2 gene. […] At birth, triple mutants are noticeably smaller than normal littermates; by day 5, signs of muscle weakness appear and become progressively more pronounced over the following week as the mice display an abnormal gait, shakiness in the hind limbs and a tendency to fall over. Mean survival is approximately 13 days.
(§8) Treated SMA mice subcutaneously received 0.5 mg/Kg Haloperidol, dissolved in 2% DMSO in saline solution (HALO group), whereas control mice received an equal amount of saline solution with 2% DMSO (VHL group). Haloperidol or saline solution were daily administered, from P2 (postnatal day 2) to P12 (day of sacrifice).
During the whole period, the animals underwent a number of behavioral motor tests: tail suspension test, righting reflex, hindlimb suspension test, negative geotaxis (El-Khodor et al. 2008, Boido et al. 2018). Mice were evaluated daily starting from P2 for body weight and behavioral performances: • Tail suspension test (self-clasping): pups were suspended by the tail for 15 s, and their hind-limb posture was scored in a scale from 4 (normal) to 0 (clasping); • Righting reflex: pups were placed on their backs on a flat surface; their success or failure to reposition themselves dorsal side up was assessed over a 30 s period; • Negative geotaxis test: starting from P4, pups we placed on an inclined grid with the mouse head facing down (cut off: max 60 s).

[3] = test system: co-culture of SMA type I motoneurons and SMA type I myoblasts; assay: Motoneurons and myoblasts co-culture (MN survival, myotube area); format: cell-based, human; conditions: treatment every 3 days for 7 days, versus non-treated controls
Source text: SMA type I (SMA) or healthy motoneurons (MN) derived from induced pluripotent stem cells were co-cultured with SMA type I or healthy myoblasts differentiated into myotubes. […] (B) Analysis of SMA myotubes area compared to the same controls as above. […] Myotubes were marked using MF20 marker (dark green), MNs were marked with ISL1 (red), acetylcholine receptors were marked with AChR (light green) and cell nuclei were stained with Hoechst (blue).
Primary cells were isolated from skeletal muscle as described previously (Chaouch et al. 2009). These cells were expanded and differentiated as previously described. Briefly, primary and immortalized myoblasts were expanded in a mix of 199 medium/Dulbecco modified Eagles minimal essential medium (1:4 ratio) supplemented with 20% fetal bovine serum (FBS), 25 μg/mL fetuin, 0.5 ng/ml basic fibroblast growth factor, 5 ng/ml epidermal growth factor, 5 μg/mL insulin. Cells were then cultivated in a growth medium consisting of DMEM-F12 glutamax (Life Technologies) supplemented with 20% FBS (Sigma-Aldrich) and 0.1% penicillin/steptomycin (Life Technologies). Myogenic differentiation was induced by switching growth medium to DMEM supplemented with 2% horse serum (Life Technologies).
For co-culture, spinal MNs must be differentiated from hiPSC as described previously, but the embryoid bodies are dissociated at day 14 of differentiation and frozen. […]

[4] = test system: SMA motoneurons derived from hiPSCs; assay: Survival rate of hiPSC-derived SMA motoneurons (ISL1-positive cells); format: cell-based, human; conditions: 10 days of treatment
Protocol: (B) SMA MNs survival rate analysis after 10 days of treatment at a range of concentrations. […] Kenpaullone (Ken) at 10 μM was used as as positive control in those experiments.
For spinal motor neurons (MNs) differentiation from hiPSCs, we used a previously reported protocol [Maury et al., 2015]. HiPSC were incubated in suspension in a neural induction medium containing DMEM/F12 and Neurobasal medium supplemented with B27 (Life Technologies), N2 Supplement (Life Technologies), Pen-Strep 0.1%, β-Mercaptoethanol (β-ME) 0.1% (Life Technologies), Ascorbic Acid (0.5 μM, Sigma-Aldrich), Chir99021 (3 μM, Stemgent), SB431542 (20 μM, Tocris), LDN 193189 (0.2 μM, Stemgent) and Y-27632 (10 μM, Stemcell) at a density of 0.2×10^6 cells/ml in T25 flask or 0.25×10^6 cells/ml in spinner flask. After 2 days, caudalization of the neural progenitors was obtained by addition of retinoic acid (RA 0.1 μM) and smoothened agonist (SAG, 0.5 μM). After 1 week in suspension, brain-derived neurotrophic factor (BDNF, 10 ng/ml), glial-derived neurotrophic factor (GDNF, 10 ng/ml), and N-[N-(3,5-Difluorophenacetyl)-L-alanyl]-S-phenylglycine t-butyl ester (DAPT, 10 nM) were added in the medium without SB431542 and LDN193189. Between day 10 and 14, MN progenitors are converted into MNs. […]
The survival of MNs was determined by quantifying the number of ISL1-positive cells in each condition.

delta 7 SMA mice [5] = assay: Muscular fiber morphology of quadriceps in delta 7 SMA mice; format: in vivo; conditions: P12, 10 days at 0.5 mg/kg, versus sham
Protocol: FIG. 9. The effect of haloperidol on muscular fiber morphology in the skeletal muscles of delta 7 mice. Comparison of quadriceps fiber morphology between sham (0.9% saline solution with 2% DMSO) and haloperidol-treated delta 7 SMA mice at P12. The measurements of the muscle fiber area (A), perimeter (B), and maximum and minimum Feret's diameter of muscle fibers (C). At least 100 fibers were analyzed from each animal; the results are shown as the averages obtained from the individual animals.
We first performed morphological analyses of the H/E-stained quadriceps muscles from mice at postnatal day 12 (P12) after 10 days of treatment with haloperidol at 0.5 mg/kg and compared it to mice treated with sham. Specifically, for the morphological analysis of quadriceps skeletal muscle sections were stained with H/E, as previously described (Valsecchi et al. (2015); Rindt et al. (2015)). To morphologically evaluate mean fiber area, perimeter, minimum and maximum Feret's diameter, more than 100 fibers for each animal were drawn with Neurolucida software (MicroBrightField Inc.) and a computer-assisted microscope (Nikon Eclipse E600 microscope). Data were obtained by the associated data analysis software NeuroExplorer (MicroBrightField): we then averaged the means obtained from single animals. Images of skeletal muscles fibers were acquired with Zeiss Axioscan Z.1 digital slide scanner microscope (Carl Zeiss AG).

SMN = SMN expression by Western Blot in tissues of SMA Δ7 mice at P12; format: in vivo; conditions: P12, 0.5 mg/Kg s.c. daily
Protocol: FIG. 5. Analysis of SMN expression by Western Blot.
as §7, §8
At P12, Halo and VHL animals were sacrificed, and fresh spinal cords and some skeletal muscles (diaphragm, quadriceps, and gastrocnemius) were rapidly dissected. We then verified the effect of Haloperidol on SMN expression on these samples. Tissues were homogenized on ice using a pestle homogenizer in radioimmunoprecipitation assay buffer (RIPA lysis buffer) (Merck Life Sciences) supplemented with 1 mM PMSF, 1 mM DTT, 2 mM sodium orthovanadate (ThermoFisher Scientific) and 1× cOmplete™ Protease Inhibitor Cocktail (Merck Life Sciences). Sample homogenates were incubated on ice for 20 min before being centrifuged for the insoluble material separation at 14,000×g for 20 min at 4° C. Total protein concentration was assayed on supernatants using Bradford reagent (Bio-Rad). Protein denaturation was performed with NuPAGER LDS Sample Buffer supplemented with NuPAGE® Sample Reducing Agent (ThermoFisher Scientific), by heating at 95° C. for 5 min. SDS-PAGE and transfer were performed on 4-20% Mini-PROTEAN® TGX™ Precast Protein Gels and Trans-Blot® Turbo™ mini nitrocellulose membranes using a Trans-Blot® Turbo™ transfer System (Bio-Rad), respectively. Nonspecific binding sites were blocked using 5% nonfat dried milk in PBS-0.2% Tween-20 (Merck Life Sciences) (PBS-T) for 1 h at RT under shaking. […] Immunolabeling was detected with Clarity™ Western ECL Blotting Substrates (Bio-Rad) using the ChemiDoc™ imaging system (Bio-Rad). Densitometric quantitation of bands was performed with Fiji (Image J, NIH).

SMN2 FL transcript = assay: qPCR quantification of SMN2 full length (FL) transcript in SMA fibroblasts; format: cell-based, human; parameters: key to SMN2 FL isoform levels: relative expression (2^-ΔΔCt), normalized to reference gene; conditions: for SMN2 FL isoform levels: 48 hours, GM03813 fibroblasts, normalized to GAPDH, each of 3 samples
Protocol: as §1, §2, §3, §4, §5, §6

[6] = 0.5 mg/Kg subcutaneously daily P2 to P12, versus VHL

## O=C(CCCN1CCC(O)(c2ccc(Cl)cc2)CC1)c1ccc(F)cc1 [haloperidol]
[1]; 2.5 μM
  fusion index: 66.7%
Delta 7 SMA mice [2]
  denervated endplates: 9.50±1.50%
SMN2 Δ7 transcript; 10 μM
  SMN2 Δ7 isoform levels: 0.90 and 0.89
SMN2 Δ7 transcript; 25 μM
  SMN2 Δ7 isoform levels: 1.00 and 1.06 and 1.04
SMN2 Δ7 transcript; 37.5 μM
  SMN2 Δ7 isoform levels: 0.96 and 1.01 and 1.03
SMN2 Δ7 transcript; 50 μM
  SMN2 Δ7 isoform levels: 1.89 and 1.23
SMN protein; 25 μM
  SMN protein levels: 1.132 and 1.751 and 1.745
SMN protein; 37.5 μM
  SMN protein levels: 2.265 and 2.211 and 2.469
SMN protein; 50 μM
  SMN protein levels: 2.413 and 2.453 and 2.614
SMA Δ7 mice; [6]
  body weight: significant weight increase
  negative geotaxis test: improved motor performances
  righting reflex test: improved motor performances
  tail suspension test: improved motor performances
SMA Δ7 mice; murine SMA model, haloperidol administration
  side effects (behavioral changes or sedation phenotypes): not associated with any conspicuously deleterious or undesirable side effects
[3]
  area of myotubes in co-culture: increases the area of myotubes
  survival rate of SMA MNs in co-culture: increases the survival rate of SMA MNs
[4]; 0.32 μM
  SMA motoneurons survival rate: almost completely rescue
[4]; versus kenpaullone at 10 μM
  SMA motoneurons survival rate compared with positive control: more efficient than the positive control kenpaullone
Delta 7 SMA mice [5]
  increase in Max Feret's diameter: +40%
  increase in fiber area: +104%
  increase in fiber perimeter: +43%
  increase in min Feret's diameter: +49%
SMN; diaphragm
  SMN expression increase compared to VHL: 23%
SMN; gastrocnemius
  SMN expression increase compared to VHL: 102%
SMN; quadriceps
  SMN expression increase compared to VHL: 123%
SMN; spinal cord
  SMN expression increase compared to VHL: 58%
SMN2 FL transcript; 10 μM
  SMN2 FL isoform levels: 1.10 and 1.03 and 1.06
SMN2 FL transcript; 25 μM
  SMN2 FL isoform levels: 1.15 and 1.37 and 1.07
SMN2 FL transcript; 37.5 μM
  SMN2 FL isoform levels: 1.32 and 1.47 and 1.51
SMN2 FL transcript; 50 μM
  SMN2 FL isoform levels: 2.54 and 2.11 and 2.33
SMN2 FL transcript; at the highest concentration
  amount of FL SMN2 transcript: doubled

## Cc1cn2nc(-c3cc(=O)n4cc(N5CCNC6(CC6)C5)ccc4n3)cc(C)c2n1 [risdiplam]
[1]; 1 μM (positive control)
  fusion index: 66.7%

Source: patent US20240390356A1, “HALOPERIDOL FOR USE IN THE TREATMENT OF SPINAL MUSCULAR ATROPHY” (UNIVERSITAT DE VALÈNCIA, priority 2021, published 2024)
